Two compounds from patent publication US20050026846A1, “Pharmaceutical compositions comprising alkanoyl L-carnitine in combination with a statine for treating pathologies brought about by an altered lipid metabolism” (SIGMA-TAU INDUSTRIE FARMACEUTICHE RIUNITE S.p.A., priority 1997, published 2005) can be followed below.

Some results are limits rather than exact numbers.

Assay type in all cases: in vivo, human
Series [1] deals with hypertriglyceridaemic patients. Description: Clinical study: cholesterolaemia (blood-chemistry tests). The conditions noted are these: for Cholesterolaemia, statistical significance (p) vs baseline: propionyl L-carnitine 2 g/day, Student's t-test for paired data. As for the experimental part: (§1) Eight hypertriglyceridaemic patients (3 males and 5 females) were recruited for the study, with a mean age of 65 years (range: 52-70), presenting mean triglyceridaemia values of 213.0±21.18 mg % and mean cholesterolaemia values of 158.1±25.90 mg %, who were put on a dietary regimen consisting in 40 Kcal/kg, 1.2 g/kg proteins and 1.4 g/kg lipids daily.
(§2) After baseline determinations of cholesterolaemia, triglyceridaemia, bilirubinaemia, alkaline phosphatase, protidaemia, GOT and GPT, all subjects took propionyl L-carnitine 2 g/day os for 60 days, which was discontinued on day 61 for a 30-day wash-out period. Simvastatin was then administered at a dose of 10 mg/day os in the evening for 30 days, followed by a further 30-day washout period and then by another 30-day period during which propionyl L-carnitine 1.5 g/day os and simvastatin 5 mg/day os were administered simultaneously.
(§3) Blood-chemistry tests were performed before and after each course of drug treatment and at the end of each wash-out period. The data obtained were subjected to statistical analysis using Student's t-test for paired data (Table 1).

For series [2], the system named is hypertriglyceridaemic patients. The series can be described thus: Clinical study: triglyceridaemia (blood-chemistry tests). The conditions noted are these: for Triglyceridaemia, statistical significance (p) vs baseline: propionyl L-carnitine 2 g/day, Student's t-test for paired data. How it is done:
as §1, §2, §3

The subject of series [3] is hypertriglyceridaemic patients. The series can be described thus: Clinical study: side effects. Conditions: propionyl L-carnitine 2 g/day or 1.5 g/day os; simvastatin 10 or 5 mg/day os. How it is done:
as §1, §2
All patients completed the study according to the procedures described. […] During the wash-out period the mean triglyceridaemia value recorded was 202.5±9.71 mg %, whereas the mean baseline value was 213.0±21.1 1 mg % (Table 2).

Setting [4] is: 30 days os, simvastatin 10 mg/day, combination 1.5 g/day + 5 mg/day.

Consider `CCC(=O)O[C@H](CC(=O)[O-])C[N+](C)(C)C` [propionyl L-carnitine], for which the “Cholesterolaemia, statistical significance (p) vs baseline” value in series [1] (setting [4]) is listed as “p < 0.4795”; in series [1] (60 days os), “p < 0.0198”. In addition, the “Triglyceridaemia, statistical significance (p) vs baseline” value is recorded as below 0.3671 in series [2] (setting [4]); “p < 0.3671” in series [2] (30 days os, simvastatin 10 mg/day, combination 1.5 g/day + 5 mg/day, listed as Propionyl L-carnitine); below 0.0272 in series [2] (60 days os); “p < 0.0272” in series [2] (60 days os, listed as Propionyl L-carnitine). The “triglyceridaemia after treatment, significance (p): propionyl L-carnitine vs simvastatin” value in series [2] (each administered alone) is reported as below 0.167. The “side effects attributable to the drugs during the study period” value in series [3] is “no side effects”.
Regarding `CCC(C)(C)C(=O)O[C@H]1C[C@@H](C)C=C2C=C[C@H](C)[C@H](CC[C@@H]3C[C@@H](O)CC(=O)O3)[C@H]21` [simvastatin, reference compound], in series [1] (setting [4]), the “Cholesterolaemia, statistical significance (p) vs baseline” value is on record as “p < 0.0585”. The “mean cholesterolaemia value after treatment” value in series [1] (after 30 days os, simvastatin 10 mg/day, or propionyl L-carnitine 1.5 g/day + simvastatin 5 mg/day, baseline 158.12±25.90 mg %, 8 patients) was 156.75±22.82 mg %. Moreover, the “mean post-treatment triglyceride value” in series [2] (after 30 days os, simvastatin 10 mg/day, or propionyl L-carnitine 1.5 g/day + simvastatin 5 mg/day, baseline 213.0±21.18 mg %, 8 patients) is given as 193.8±22.63 mg %.
